Article PMC8765781, “A platform of assays for the discovery of anti-Zika small-molecules with activity in a 3D-bioprinted outer-blood-retina model” (PLoS ONE, 2022)
Read-outs that look alike come from different tables or passages of the source.

How the values were obtained:
[1] = tested on: ZIKV-RLuc (Cambodian strain FSS13025); test: microbe, parasite or virus in culture; assay type: cell-based, Zika virus; settings: for AC50: Zika virus, Vero
[2] = read-out: Log AC50 (M) (converted)

SMILES	CC-v2 (curve class classification v2 of the dose response curve) [1]	Efficacy (difference between neutral response and maximum compound response) [1]	Max Resp (difference between neutral response and compound response for highest compound concentration) [1]	AC50 [1] [M]	AC50 [1, 2] [M]	AC50 (Vero cells) [µM]	Log AC50 (M) (Vero cells)
CC(=O)O[C@H]1C(=O)[C@@]2(C)C([C@H](OC(=O)c3ccccc3)[C@]3(O)C[C@H](OC(=O)[C@H](O)[C@@H](NC(=O)c4ccccc4)c4ccccc4)C(C)=C1C3(C)C)[C@]1(OC(C)=O)CO[C@@H]1C[C@@H]2O (some centres unmarked) [NCGC00024995-10]	-2.2	-75.217	-63.948	2.08e-05	2.08e-05	20.8	-4.6827
C[S+]([O-])c1ccc(-c2nc(-c3ccc(F)cc3)c(-c3ccncc3)[nH]2)cc1 (centres unmarked) [NCGC00025035-05]	-2.1	-107.599	-87.79	4.79e-05	4.79e-05	47.9	-4.3199
CC#C[C@]1(O)CC[C@H]2[C@@H]3CCC4=CC(=O)CCC4=C3[C@@H](c3ccc(N(C)C)cc3)C[C@@]21C [NCGC00025179-12]	-3	-109.046	-95.447	2.61e-05	2.61e-05	26.1	-4.5827
C[C@H]1O[C@@H](O[C@H]2[C@@H](O)C[C@H](O[C@H]3[C@@H](O)C[C@H](O[C@H]4CC[C@@]5(C)[C@H](CC[C@@H]6[C@@H]5C[C@@H](O)[C@]5(C)[C@@H](C7=CC(=O)OC7)CC[C@]65O)C4)O[C@@H]3C)O[C@@H]2C)C[C@H](O)[C@@H]1O [NCGC00090797-01]	-1.1	-107.599	-98.918	4.65e-07	4.65e-07	0.465	-6.3327
Oc1c(Cl)cc(Cl)c(Cl)c1Cc1c(O)c(Cl)cc(Cl)c1Cl [NCGC00091195-08]	-1.1	-99.169	-99.917	2.33e-06	2.33e-06	2.33	-5.6327
C[C@]12CC[C@@H]3c4ccc(O)cc4CC[C@H]3[C@@H]1CC[C@@H]2O [NCGC00091544-08]	-2.2	-64.056	-67.89	2.69e-05	2.69e-05	26.9	-4.5699
CCCCCCCCCCC(C)(C)C(=O)Nc1c(OC)cc(OC)cc1OC [NCGC00092343-02]	-3	-55.755	-44.379	3.69e-05	3.69e-05	–	-4.4327
CCCCCCCCCCCC(CC1OC(=O)C1CCCCCC)OC(=O)C(CC(C)C)NC=O (centres unmarked) [NCGC00095128-04]	-2.1	-95.825	-91.668	2.93e-05	2.93e-05	29.3	-4.5327
O=C1Nc2ccc(Cl)cc2[C@@](C#CC2CC2)(C(F)(F)F)O1 [NCGC00159337-04]	-2.1	-93.261	-95.737	1.65e-05	1.65e-05	16.5	-4.7827
COc1cc([C@@H]2c3cc4c(cc3[C@H](O)[C@H]3COC(=O)[C@@H]23)OCO4)cc(OC)c1OC [NCGC00161923-04]	-1.2	-67.755	-62.284	2.93e-06	2.93e-06	2.93	-5.5327
CCC(=C/[C@H](C)C/C=C/C(C)=C/[C@@H](C)C(=O)[C@@H](C)[C@H](O)[C@@H](C)C/C(C)=C/C(=O)O)/C=C/[C@@H]1OC(=O)C=C[C@@H]1C [NCGC00162440-02]	-1.2	-71.611	-66.361	4.76e-09	4.76e-09	0.00476	-8.3224
CCCCCCCCOc1ccccc1C(=O)Nc1ccc(C(=O)OCC[N+](C)(CC)CC)cc1.[Br-] [NCGC00163507-03]	-2.4	-66.096	-65.496	2.08e-05	2.08e-05	20.8	-4.6827
CS[C@H]1SC[C@@H]2C(=O)N(C)[C@H](C(C)C)C(=O)OC[C@H](NC(=O)c3cnc4ccccc4n3)C(=O)N[C@H](C)C(=O)N(C)[C@H]1C(=O)N(C)[C@H](C(C)C)C(=O)OC[C@H](NC(=O)c1cnc3ccccc3n1)C(=O)N[C@H](C)C(=O)N2C [NCGC00163548-01]	-1.1	-94.296	-94.115	1.82e-06	1.82e-06	1.82	-5.7408
CC(=O)O[C@H]1C(=O)[C@@]2(C)[C@H]([C@H](OC(=O)c3ccccc3)[C@]3(O)C[C@H](OC(=O)[C@H](O)[C@@H](NC(=O)c4ccccc4)c4ccccc4)C(C)=C1C3(C)C)[C@]1(OC(C)=O)CO[C@@H]1C[C@@H]2O [NCGC00164367-10]	-1.2	-44.84	-48.24	1.39e-07	1.39e-07	0.139	-6.8582
CCN(CC)CCOc1ccc(C(=C(Cl)c2ccccc2)c2ccccc2)cc1 [NCGC00164385-05]	-2.1	-102.171	-98.776	2.33e-05	2.33e-05	23.3	-4.6327
C[C@@H]1C[C@H]2C3CCC4=CC(=O)C=C[C@@]4(C)[C@@]3(Cl)[C@@H](O)CC2(C)[C@@]1(OC(=O)c1ccco1)C(=O)CCl (some centres unmarked) [NCGC00164596-01]	-1.1	-109.905	-100.212	1.04e-05	1.04e-05	10.4	-4.9827
CCN(CC)CCNC(=O)c1c(C)[nH]c(/C=C2\C(=O)Nc3ccc(F)cc32)c1C [NCGC00164631-04]	-2.1	-103.003	-99.557	1.17e-05	1.17e-05	11.7	–
O=c1[nH]c2ccccc2n1C1CCN(Cc2ccc(-c3nc4cc5nc[nH]c5cc4nc3-c3ccccc3)cc2)CC1 [NCGC00165727-01]	-2.1	-80.197	-82.143	1.65e-05	1.65e-05	16.5	-4.7827
CN(C)C1CCN(CCCOc2ccc(-c3ccc(C#N)cc3)cc2)C1 (centres unmarked) [NCGC00165730-02]	-3	-68.814	-57.023	3.69e-05	3.69e-05	36.9	-4.4327
COc1cc(C(C)C)c2c(c1)[S+](=O)([O-])N(COc1cc(=O)n3cccc(OCCN4CCCCC4)c3n1)C2=O [NCGC00167751-03]	-2.1	-105.384	-99.738	2.33e-05	2.33e-05	23.3	-4.6327
O=c1cc(-c2ccc(O)c(O)c2)oc2c(C3O[C@H](CO)[C@H](O)[C@H](O)[C@H]3O)c(O)cc(O)c12 (some centres unmarked) [NCGC00168934-02]	-2.1	-106.691	-100.564	1.85e-05	1.85e-05	18.5	-4.7327
C/C=C(\C)C(=O)O[C@H]1CC2C(=C1C)[C@H]1OC(=O)[C@](C)(O)[C@]1(O)[C@H](OC(=O)CCC)C[C@@]2(C)OC(C)=O (some centres unmarked) [NCGC00169033-03]	-1.1	-98.201	-99.812	2.29e-06	2.29e-06	–	-5.6408
CCCCC/C=C/C(=O)CCc1ccc(O)c(OC)c1 [NCGC00169591-02]	-2.1	-87.809	-86.687	1.85e-05	1.85e-05	18.5	-4.7327
